Legend:
Format in all cases: toxicity, cell-based
[1] = system: Fibroblast; assay: Incucyte cell viability with human fibroblast; conditions: 10 µM, compound concentration 10 uM
[2] = system: U2OS; assay: Incucyte cell viability with U2OS; conditions: human, 10 µM, compound concentration 10 uM
[3] = system: HEK-293T; assay: Incucyte cell viability with HEK293T; conditions: human, 10 µM, compound concentration 10 uM
Also: unitless GR value; below 1 slowed growth and below 0 cell loss.

O=C(NCc1cccc(O)c1)Nc1nc(-c2ccncc2)cs1
Growth Rate ([1]; 0 h, replicate number 2): -0.55 | Growth Rate ([1]; 6 h, replicate number 1): -1 | Growth Rate ([2]; 0 h, replicate number 2): -0.94 | Growth Rate ([2]; 24 h, replicate number 1): 0.88 | Growth Rate ([2]; 24 h, replicate number 2): 1 | Growth Rate ([3]; 0 h, replicate number 1): -0.16 | Growth Rate ([3]; 0 h, replicate number 2): -0.82

COc1ccc(-c2cc3c(C)nc(N)nc3n([C@H]3CC[C@H](OCCO)CC3)c2=O)cn1 [PF-04691502]
Growth Rate ([1]; 0 h, replicate number 1): -1 | Growth Rate ([1]; 6 h, replicate number 1): 0.8 | Growth Rate ([1]; 6 h, replicate number 2): 0.33 | Growth Rate ([1]; 12 h, replicate number 1): 0.03 | Growth Rate ([1]; 12 h, replicate number 2): -0.28 | Growth Rate ([1]; 18 h, replicate number 1): -0.18 | Growth Rate ([1]; 18 h, replicate number 2): -0.29 | Growth Rate ([1]; 24 h, replicate number 1): -0.23 | Growth Rate ([1]; 24 h, replicate number 2): -0.32 | Growth Rate ([2]; 0 h, replicate number 1): -0.97 | Growth Rate ([2]; 18 h, replicate number 1): 0.65 | Growth Rate ([2]; 18 h, replicate number 2): 0.83 | Growth Rate ([2]; 24 h, replicate number 1): 0.6 | Growth Rate ([2]; 24 h, replicate number 2): 0.62 | Growth Rate ([3]; 6 h, replicate number 1): -0.19 | Growth Rate ([3]; 6 h, replicate number 2): -0.8 | Growth Rate ([3]; 12 h, replicate number 1): -0.29 | Growth Rate ([3]; 12 h, replicate number 2): -0.6 | Growth Rate ([3]; 18 h, replicate number 1): -0.17 | Growth Rate ([3]; 18 h, replicate number 2): -0.38 | Growth Rate ([3]; 24 h, replicate number 1): -0.14 | Growth Rate ([3]; 24 h, replicate number 2): -0.25

C=CC(=O)N1CCC[C@@H](n2nc(-c3ccc(Oc4ccccc4)cc3)c3c(N)ncnc32)C1 [IBRUTINIB]
Growth Rate ([1]; 6 h, replicate number 1): 0.04 | Growth Rate ([1]; 6 h, replicate number 2): 0.23 | Growth Rate ([1]; 12 h, replicate number 2): 0.79 | Growth Rate ([1]; 18 h, replicate number 1): 0.66 | Growth Rate ([2]; 0 h, replicate number 1): -0.06 | Growth Rate ([2]; 0 h, replicate number 2): 0.8 | Growth Rate ([2]; 6 h, replicate number 1): -0.04 | Growth Rate ([2]; 6 h, replicate number 2): 0.61 | Growth Rate ([2]; 12 h, replicate number 1): 0.53 | Growth Rate ([2]; 12 h, replicate number 2): 0.61 | Growth Rate ([2]; 18 h, replicate number 1): 0.56 | Growth Rate ([2]; 24 h, replicate number 1): 0.63 | Growth Rate ([2]; 24 h, replicate number 2): 0.55 | Growth Rate ([3]; 0 h, replicate number 2): -1 | Growth Rate ([3]; 6 h, replicate number 1): -0.5 | Growth Rate ([3]; 6 h, replicate number 2): -0.48 | Growth Rate ([3]; 12 h, replicate number 1): -0.04 | Growth Rate ([3]; 12 h, replicate number 2): -0.25 | Growth Rate ([3]; 18 h, replicate number 1): 0.36 | Growth Rate ([3]; 18 h, replicate number 2): 0.27 | Growth Rate ([3]; 24 h, replicate number 1): 0.51 | Growth Rate ([3]; 24 h, replicate number 2): 0.25

COc1ccccc1S(=O)(=O)Nc1ccc2c(c1)CN(C)C(=O)N2
Growth Rate ([1]; 0 h, replicate number 2): 0.57 | Growth Rate ([1]; 6 h, replicate number 1): 0.3 | Growth Rate ([1]; 6 h, replicate number 2): -0.15 | Growth Rate ([1]; 12 h, replicate number 1): 0.4 | Growth Rate ([1]; 12 h, replicate number 2): 0.42 | Growth Rate ([1]; 18 h, replicate number 1): 0.37 | Growth Rate ([1]; 18 h, replicate number 2): 0.7 | Growth Rate ([1]; 24 h, replicate number 1): 0.79 | Growth Rate ([2]; 0 h, replicate number 1): -0.66 | Growth Rate ([2]; 0 h, replicate number 2): -0.75 | Growth Rate ([2]; 6 h, replicate number 1): 0.81 | Growth Rate ([2]; 6 h, replicate number 2): 0.5 | Growth Rate ([2]; 12 h, replicate number 1): 0.83 | Growth Rate ([3]; 0 h, replicate number 1): 0.51 | Growth Rate ([3]; 0 h, replicate number 2): -0.37 | Growth Rate ([3]; 18 h, replicate number 2): 0.98 | Growth Rate ([3]; 24 h, replicate number 2): 0.9

CC(F)(F)CN1C(=O)c2[nH]nc(-c3cccc4[nH]c(=O)oc34)c2C1c1ccc(Oc2cc(C(F)(F)F)cc(C(F)(F)F)c2)cc1 (stereo not drawn)
Growth Rate ([1]; 0 h, replicate number 2): -0.97 | Growth Rate ([1]; 6 h, replicate number 1): 0.84 | Growth Rate ([1]; 18 h, replicate number 1): 0.98 | Growth Rate ([1]; 24 h, replicate number 1): 0.96 | Growth Rate ([2]; 24 h, replicate number 1): 0.88 | Growth Rate ([3]; 0 h, replicate number 1): 0.14 | Growth Rate ([3]; 0 h, replicate number 2): -0.56 | Growth Rate ([3]; 12 h, replicate number 2): 0.76 | Growth Rate ([3]; 18 h, replicate number 1): 0.83 | Growth Rate ([3]; 18 h, replicate number 2): 0.68 | Growth Rate ([3]; 24 h, replicate number 1): 0.78 | Growth Rate ([3]; 24 h, replicate number 2): 0.75

CN(C)C(=O)c1cc2cnc(Nc3ccc(N4CCN(CCCCNC(=O)COc5cccc6c5C(=O)N(C5CCC(=O)NC5=O)C6=O)CC4)cn3)nc2n1C1CCCC1 (stereo not drawn)
Growth Rate ([1]; 0 h, replicate number 1): -1 | Growth Rate ([2]; 0 h, replicate number 1): -1 | Growth Rate ([2]; 0 h, replicate number 2): 0.74 | Growth Rate ([2]; 6 h, replicate number 2): 0.65 | Growth Rate ([2]; 18 h, replicate number 1): 0.93 | Growth Rate ([2]; 24 h, replicate number 1): 0.95 | Growth Rate ([3]; 0 h, replicate number 2): 0.78 | Growth Rate ([3]; 6 h, replicate number 1): 0.52 | Growth Rate ([3]; 6 h, replicate number 2): 0.46 | Growth Rate ([3]; 12 h, replicate number 2): 0.81 | Growth Rate ([3]; 18 h, replicate number 1): 0.88 | Growth Rate ([3]; 18 h, replicate number 2): 0.67 | Growth Rate ([3]; 24 h, replicate number 1): 1 | Growth Rate ([3]; 24 h, replicate number 2): 0.81

CCOCCn1cc(C(=O)Nc2ccc(-n3nc(-c4cccnc4)cc3C(F)(F)F)cn2)ccc1=O [BI 1935]
Growth Rate ([1]; 0 h, replicate number 2): -0.02 | Growth Rate ([1]; 6 h, replicate number 2): 0.1 | Growth Rate ([1]; 12 h, replicate number 1): 0.59 | Growth Rate ([1]; 12 h, replicate number 2): 0.65 | Growth Rate ([1]; 18 h, replicate number 1): 0.83 | Growth Rate ([1]; 24 h, replicate number 1): 0.78 | Growth Rate ([2]; 6 h, replicate number 1): 0.75 | Growth Rate ([2]; 12 h, replicate number 1): 0.52 | Growth Rate ([2]; 12 h, replicate number 2): 0.89 | Growth Rate ([2]; 18 h, replicate number 1): 0.7 | Growth Rate ([2]; 24 h, replicate number 1): 0.66 | Growth Rate ([3]; 6 h, replicate number 1): 0.1 | Growth Rate ([3]; 6 h, replicate number 2): -0.06 | Growth Rate ([3]; 12 h, replicate number 1): 0.36 | Growth Rate ([3]; 12 h, replicate number 2): 0.27 | Growth Rate ([3]; 18 h, replicate number 1): 0.41 | Growth Rate ([3]; 18 h, replicate number 2): 0.43 | Growth Rate ([3]; 24 h, replicate number 1): 0.48 | Growth Rate ([3]; 24 h, replicate number 2): 0.51
